Results published in patent US9790169B2, “IDO inhibitors” (BRISTOL-MYERS SQUIBB COMPANY, priority 2015, dated 2017).

Target: human IDO1 (Homo sapiens, UniProt P14902)
Test: Assessment of human IDO-1 inhibitory activity in Hela cells (Interferon-gamma stimulated HeLa cells, Ehrlich reagent, absorbance 490 nm)
Format: cell-based
Design: endogenous in cells; host or cells: HeLa cells stimulated with interferon-gamma
Details: Hela Human IDO-1 cellular assay
Outline: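 HeLa cells pre-incubated with compound 1 h at 37 °C, then stimulated with human IFN-γ (10 ng/ml final) or murine IFN-γ (5 ng/ml final) for 18 h. Kynurenine read with Ehrlich reagent at 490 nm after TCA (3%) and 50 °C treatment; IC50 normalized to unstimulated (100%) and IFN-γ-only (0%) wells.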

Chain of human IDO1 (P14902 whole entry): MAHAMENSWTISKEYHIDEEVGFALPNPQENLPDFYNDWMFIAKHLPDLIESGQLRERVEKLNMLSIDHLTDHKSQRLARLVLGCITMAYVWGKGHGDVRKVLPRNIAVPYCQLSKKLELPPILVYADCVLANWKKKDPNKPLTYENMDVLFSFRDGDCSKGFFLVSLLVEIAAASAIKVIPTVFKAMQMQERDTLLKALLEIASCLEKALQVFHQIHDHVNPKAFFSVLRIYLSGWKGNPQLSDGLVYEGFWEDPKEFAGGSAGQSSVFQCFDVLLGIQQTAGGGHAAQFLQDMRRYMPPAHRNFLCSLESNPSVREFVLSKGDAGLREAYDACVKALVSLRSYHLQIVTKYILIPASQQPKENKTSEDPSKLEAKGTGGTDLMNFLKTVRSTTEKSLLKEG

Row | IC50 [nM] | Compound
1 | < 50 | CCN(c1ccc(C(CC(=O)O)C2CC2)cc1Nc1ccc(OC)nc1)C1CCS(=O)(=O)CC1 (single isomer, unassigned) [Example 342, 3-cyclopropyl-3-(4-((1,1-dioxidotetrahydro-2H-thiopyran-4-yl)(ethyl)amino)-3-((6-methoxypyridin-3-yl)amino)phenyl)propanoic acid]
2 | < 5 | CCC(CC(=O)O)c1cc(F)c(N(CC)C2CCOCC2)c(Nc2ccc(OC)nc2)c1 (single isomer, unassigned) [Example 142, 3-(4-(ethyl(tetrahydro-2H-pyran-4-yl)amino)-3-fluoro-5-((6-methoxypyridin-3-yl)amino)phenyl) pentanoic acid]
3 | < 50 | CCN(c1cc(F)c(C(COC)CC(=O)O)cc1NC(=O)Nc1ccc(Cl)cc1F)C1CCOCC1 (single isomer, unassigned) [Example 855, 3-(5-(3-(4-Chloro-2-fluorophenyl)ureido)-4-(ethyl(tetrahydro-2H-pyran-4-yl)amino)-2-fluorophenyl)-4-methoxybutanoic acid]
4 | < 5 | CCN(c1ccc(C(C)CC(=O)O)cc1Nc1ccc(F)cc1)C1CCOCC1 (single isomer, unassigned) [Example 627, 3-(4-(ethyl(tetrahydro-2H-pyran-4-yl)amino)-3-((4-fluorophenyl)amino)phenyl) butanoic acid]
5 | < 50 | CCC(CC(=O)O)c1ccc(N(CCOC)C2CCOCC2)c(NC(=O)Nc2ccc(Cl)cc2F)c1 (single isomer, unassigned) [Example 1265, 3-(3-(3-(4-chloro-2-fluorophenyl)ureido)-4-((2-methoxyethyl) (tetrahydro-2H-pyran-4-yl)amino)phenyl)pentanoic acid]
6 | < 5 | CCc1ncc(Nc2cc([C@H](CC)CC(=O)O)ccc2N(CC)C2CCOCC2)cn1 (single isomer, unassigned) [Example 1364]
7 | < 5 | CCCN(c1ccc([C@H](CC)CC(=O)O)cc1Nc1cnc(OCC)nc1)C1CCOCC1 (single isomer, unassigned) [Example 546]
8 | > 50 | CCC1COCCN1c1ccc([C@H](COC)CC(=O)O)cc1Nc1ccc(F)cn1 (single isomer, unassigned) [Example 1294]
9 | < 50 | CCC1COCCN1c1ccc([C@@H](COC)CC(=O)O)cc1Nc1ccc(C#N)cc1 (single isomer, unassigned) [Example 1295]
10 | < 50 | CCCN(c1ccc([C@H](COC)CC(=O)O)cc1Nc1cnc(OCC2CC2)nc1)C1CCOCC1 (single isomer, unassigned) [Example 573]
11 | > 50 | CC(CC(=O)O)c1ccc(N2C[C@@H](C)O[C@@H](C)C2)c(NC(=O)Nc2ccc(Cl)cc2F)c1 (single isomer, unassigned) [Example 749 Enantiomer 1]
12 | < 5 | CCN(c1ccc(C(CC)(CC)CC(=O)O)cc1Nc1ccc(Cl)cc1)C1CCOCC1 [Example 26, 3-(3-((4-Chlorophenyl)amino)-4-(ethyl(tetrahydro-2H-pyran-4-yl)amino)phenyl)-3-ethylpentanoic acid]
13 | < 50 | 3-(4-((1,1-dioxidotetrahydro-2H- thiopyran-4-yl)(ethyl)amino)-3- ((4-fluorophenyl)amino)phenyl)- 4-isopropoxybutanoic acid [Example 340]
14 | < 50 | CCC(CC(=O)O)c1ccc(N2C[C@@H]3C[C@H]2CN3C(=O)OC(C)(C)C)c(Nc2ccc(C#N)cc2)c1 (single isomer, unassigned) [Example 443 Diastereomer 2]
15 | < 50 | C[C@@H]1CN(c2ccc(C(CC(=O)O)C3CC3)cc2Nc2ccc(Cl)cc2)C[C@H](C)O1 (single isomer, unassigned) [Example 244]
16 | < 5 | CCN(c1cc(F)c([C@@H](COC)CC(=O)O)cc1NC(=O)Nc1ccc(Cl)cc1F)C1CCOCC1 (single isomer, unassigned) [Example 848, 3-(5-(3-(4-Chloro-2-fluorophenyl)ureido)-4-(ethyl(tetrahydro-2H-pyran-4-yl)amino)-2-fluorophenyl)-4-methoxybutanoic acid]
17 | < 50 | CCC(CC(=O)O)c1ccc(N2CCOCC2)c(NC(=O)Nc2ccc(C)cc2)c1 (single isomer, unassigned) [Example 8 Enantiomer 2, 3-(4-Morpholino-3-(3-(p-tolyl)ureido)phenyl)pentanoic acid]
18 | < 5 | CCOc1ncc(Nc2cc(C(CC)CC(=O)O)cnc2N(CC)C2CCOCC2)cn1 (racemic) [Example 1378]

Row | IC50 [nM] | Compound
19 | < 5 | CCN(c1ccc(C(CC(=O)O)C2CC2)cc1NC(=O)Nc1ccc(C)cc1)C1CCOCC1 (single isomer, unassigned) [Example 40 Enantiomer 1, 3-Cyclopropyl-3-(4-(ethyl(tetrahydro-2H-pyran-4-yl)amino)-3-(3-(p-tolyl)ureido)phenyl)propanoic acid]
20 | < 5 | COCC(CC(=O)O)c1ccc(N2CCC(c3ccccc3)CC2)c(Nc2ccc(C#N)cc2)c1 (single isomer, unassigned) [Example 1350 E1, 3-(3-((4-Cyanophenyl)amino)-4-(4-phenylpiperidin-1-yl)phenyl)-4-methoxybutanoic acid]
21 | < 5 | CCN(c1cc(F)c(C(COC)CC(=O)O)cc1Nc1ccc(C#N)c(F)c1)C1CCOCC1 (single isomer, unassigned) [Example 846, 3-(5-((4-cyano-3-fluorophenyl)amino)-4-(ethyl (tetrahydro-2H-pyran-4-yl)amino)-2-fluorophenyl)-4-methoxybutanoic acid]
22 | < 50 | CCN(c1ccc([C@H](CNS(=O)(=O)C(F)(F)F)COC)cc1Nc1ccc(C#N)cc1)C1CCOCC1 [Example 1342, (R)-N-(2-(3-((4-cyanophenyl)amino)-4-(ethyl(tetrahydro-2H-pyran-4-yl)amino)phenyl)-3-methoxypropyl)-1,1,1-trifluoromethanesulfonamide]
23 | < 5 | CCN(c1ccc(C(C)CC(=O)O)cc1Nc1ccc(C#N)cc1)C1CCOCC1 (single isomer, unassigned) [Example 625, 3-(3-((4-cyanophenyl)amino)-4-(ethyl(tetrahydro-2H-pyran-4-yl)amino)phenyl)butanoic acid]
24 | < 5 | CC[C@@H](CC(=O)O)c1ccc(N(CC)C2CCOCC2)c(Nc2cnc(C)nc2)c1 (single isomer, unassigned) [Example 1361]
25 | > 50 | CCC(CC(=O)O)c1ccc(N(CCOC)C2CCOCC2)c(NC(=O)Nc2ccc(C)cc2)c1 (single isomer, unassigned) [Example 1264 E1, 3-(4-((2-Methoxyethyl)(tetrahydro-2H-pyran-4-yl)amino)-3-(3-(p-tolyl)ureido)phenyl)pentanoic acid]
26 | < 5 | CCC(CC(=O)O)c1cc(F)c(N(CC)C2CCOCC2)c(Nc2ccc(C#N)cn2)c1 (single isomer, unassigned) [Example 138, 3-(3-((5-cyanopyridin-2-yl)amino)-4-(ethyl (tetrahydro-2H-pyran-4-yl)amino)-5-fluorophenyl) pentanoic acid]
27 | < 5 | CCC(CC(=O)O)c1cc(Nc2cnc(OC)nc2)c(N(CC)C2CCOCC2)cc1F (single isomer, unassigned) [Example 859, 3-(4-(ethyl (tetrahydro-2H-pyran-4-yl)amino)-2-fluoro-5-((2-methoxy-pyrimidin-5-yl)amino)phenyl) pentanoic acid]
28 | < 50 | COCC(CC(=O)O)c1cc(F)c(N(CC(C)C)CC(C)C)c(Nc2ccc3c(c2)OC(F)(F)O3)c1 (single isomer, unassigned) [Example 924, 3-(3-((2,2-difluorobenzo[d] [1,3]dioxol-5-yl)amino)-4-(diisobutylamino)-5-fluorophenyl)-4-methoxybutanoic acid]
29 | < 5 | CCN(c1ccc(C(CC(=O)O)C2CC2)cc1Nc1ccc(Cl)cc1)C1CCS(=O)(=O)CC1 (single isomer, unassigned) [Example 339 Enantiomer 1, 3-(3-((4-Chlorophenyl)amino)-4-((1,1-dioxidotetrahydro-2H-thiopyran-4-yl)(ethyl)amino)phenyl)-3-cyclopropylpropanoic acid]
30 | > 50 | CCOc1ncc(Nc2cc(C(COC)CC(=O)O)ccc2N(CC)C2CCS(=O)(=O)CC2)cn1 (single isomer, unassigned) [Example 171, 3-(4-((1,1-dioxidotetrahydro-2H-thiopyran-4-yl)(ethyl)amino)-3-((2-ethoxypyrimidin-5-yl)amino)phenyl)-4-methoxybutanoic acid]
31 | < 50 | CCC(CC(=O)O)c1ccc(N(CC)C2CCOC2)c(NC(=O)Nc2ccc(Cl)cc2F)c1 (single isomer, unassigned) [Example 946 D1, 3-(3-(3-(4-Chloro-2-fluorophenyl)ureido)-4-(ethyl(tetrahydrofuran-3-yl)amino)phenyl)pentanoic acid]
32 | > 50 | CCC1COCCN1c1ccc([C@H](COC)CC(=O)O)cc1Nc1ccc(C#N)cc1 (single isomer, unassigned) [Example 1287]
33 | < 5 | CCN(c1ccc([C@@H](COC)CC(=O)O)cc1Nc1ccc(C#N)cc1)C1CCOCC1 (stereo in doubt) [compound 349, 3-(3-((4-Cyanophenyl)amino)-4-(ethyl(tetrahydro-2H-pyran-4-yl)amino)phenyl)-4-methoxybutanoic acid]
34 | > 50 | CCOc1ncc(Nc2cc(C(CC)CC(=O)O)ccc2N2CC(O)(c3ccc(F)cc3)C2)cn1 (single isomer, unassigned) [Example 1256, 3-(3-((2-ethoxypyrimidin-5-yl)amino)-4-(3-(4-fluorophenyl)-3-hydroxyazetidin-1-yl)phenyl)pentanoic acid]
35 | > 50 | COCC(CC(=O)O)c1ccc(N(C)C2CCOCC2)c(Nc2ccc(Cl)cc2)c1 (single isomer, unassigned) [Example 877, 3-(3-((4-chlorophenyl)amino)-4-(methyl(tetrahydro-2H-pyran-4-yl)amino)phenyl)-4-methoxybutanoic acid]
